Values joined by “and” are separate entries in the source; they are usually repeats but may differ in a detail not shown here. Equal entries are not always repeated. Inconclusive results and toxic doses are left out.
Tested on: L1210 leukemia ip in BDF1 mice, survival T/C
Test: NCI In Vivo Anticancer Drug Screen. Data for tumor model L1210 Leukemia (intraperitoneal) in B6D2F1 (BDF1) mice
Settings: endpoint: mean survival time, higher = longer survival
Outline: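 Transplanted-tumor mice were given test agent; controls received vehicle only. Survival readings from the two groups were divided (treated over control).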

[1] = dose: 100.0 mg/kg/injection, schedule: Q04DX003 (ip), vehicle: saline
[2] = dose: 200.0 mg/kg/injection, schedule: Q04DX003 (ip), vehicle: saline
[3] = dose: 400.0 mg/kg/injection, schedule: Q04DX003 (ip), vehicle: saline
[4] = dose: 50.0 mg/kg/injection, schedule: Q01DX001 (ip), vehicle: saline
[5] = dose: 100.0 mg/kg/injection, schedule: Q01DX001 (ip), vehicle: saline
[6] = dose: 200.0 mg/kg/injection, schedule: Q01DX001 (ip), vehicle: saline
[7] = dose: 400.0 mg/kg/injection, schedule: Q01DX001 (ip), vehicle: saline
[8] = dose: 100.0 mg/kg/injection, schedule: Q04DX003 (ip), vehicle: saline with Tween-80
[9] = dose: 200.0 mg/kg/injection, schedule: Q04DX003 (ip), vehicle: saline with Tween-80
[10] = dose: 400.0 mg/kg/injection, schedule: Q04DX003 (ip), vehicle: saline with Tween-80
[11] = dose: 100.0 mg/kg/injection, schedule: Q01DX009 (ip), vehicle: Klucel (hydroxypropylcellulose) (HPC)
[12] = dose: 200.0 mg/kg/injection, schedule: Q01DX009 (ip), vehicle: Klucel (hydroxypropylcellulose) (HPC)
[13] = dose: 400.0 mg/kg/injection, schedule: Q01DX009 (ip), vehicle: Klucel (hydroxypropylcellulose) (HPC)
[14] = dose: 100.0 mg/kg/injection, schedule: Q04DX003 (ip), vehicle: Klucel (hydroxypropylcellulose) (HPC)
[15] = dose: 200.0 mg/kg/injection, schedule: Q04DX003 (ip), vehicle: Klucel (hydroxypropylcellulose) (HPC)
[16] = dose: 400.0 mg/kg/injection, schedule: Q04DX003 (ip), vehicle: Klucel (hydroxypropylcellulose) (HPC)

In the case of `CC(C)(C)OC(=O)NC(Cc1cncn1Cc1ccccc1)C(=O)NC(Cc1c[nH]c2ccccc12)C(=O)OCc1ccccc1` (centres undefined), the T/C [1] is reported as 97 % of control, the T/C [2] is reported as 93 % of control and the T/C [3] is reported as 95 % of control.
In the case of `CC(O)CCc1ccc(OC(=O)c2ccccc2)cc1` (centres undefined), the T/C [4] is reported as 101 % of control, the T/C [5] is reported as 92 % of control and the T/C [6] is reported as 101 % of control. For the same compound, the T/C [7] was 92 % of control.
For `Nc1nc(=S)[nH]c2nsnc12`, the T/C [8] was 98 % of control, the T/C [9] was 96 % of control and the T/C [10] was 103 % of control.
With `O=C1NC(=O)C(CCCCCl)N1` (centres undefined) the T/C [5] was 91 % of control, the T/C [6] was 87 % of control and the T/C [7] was 94 % of control.
With `CCCCN(CCCC)C(C)=O` the T/C [4] was 94 % of control, the T/C (dose: 50.0 mg/kg/injection, schedule: Q04DX002 (ip), vehicle: saline with Tween-80) was 109 % of control and the T/C [5] was 100 % of control. For the same compound, the T/C (dose: 100.0 mg/kg/injection, schedule: Q04DX002 (ip), vehicle: saline with Tween-80) was 95 % of control, the T/C [6] was 100 % of control and the T/C (dose: 200.0 mg/kg/injection, schedule: Q04DX002 (ip), vehicle: saline with Tween-80) was 98 % of control.
`O=C(O)CN1C(=O)CSC1=S` was tested, and the T/C (dose: 100.0 mg/kg/injection, schedule: Q01DX009 (ip), vehicle: saline with Tween-80) was 655 % of control, the T/C (dose: 200.0 mg/kg/injection, schedule: Q01DX009 (ip), vehicle: saline with Tween-80) was 91 % of control and the T/C (dose: 400.0 mg/kg/injection, schedule: Q01DX009 (ip), vehicle: saline with Tween-80) was 89 % of control.
`CCOC(=O)c1ccc(NC(=O)Oc2ccccc2F)cc1` was tested, and the T/C [11] was 91 % of control, the T/C [12] was 98 % of control and the T/C [13] was 96 % of control.
In the case of `O=C(c1ccc(Cl)cc1)c1ccc(Cl)cc1`, the T/C [14] is reported as 105 % of control, the T/C [15] is reported as 100 % of control and the T/C [16] is reported as 96 % of control.
`CC1(C)CCCC2(C)C(=O)C3CCC2C31` (centres undefined) was tested, and the T/C (dose: 100.0 mg/kg/injection, schedule: Q01DX001 (ip), vehicle: Klucel (hydroxypropylcellulose) (HPC)) was 98 % of control, the T/C (dose: 200.0 mg/kg/injection, schedule: Q01DX001 (ip), vehicle: Klucel (hydroxypropylcellulose) (HPC)) was 91 % of control and the T/C (dose: 400.0 mg/kg/injection, schedule: Q01DX001 (ip), vehicle: Klucel (hydroxypropylcellulose) (HPC)) was 91 % of control.
`O=C(CCCC(=O)NNC(=O)NC(=O)C(Cl)(Cl)Cl)NNC(=O)NC(=O)C(Cl)(Cl)Cl` was tested, and the T/C [4] was 108 % of control, the T/C [5] was 96 % of control and the T/C [6] was 102 % of control. For the same compound, the T/C [7] was 102 % of control.
In the case of `O=[N+]([O-])c1ccc(/C=C/c2nccs2)o1`, the T/C [14] is reported as 97 % of control, the T/C [15] is reported as 106 % of control and the T/C [16] is reported as 108 % of control.
`CCCCCCCCCCCCCCCCCOC(=O)CCCCCCCCCCCCC` was tested, and the T/C [11] was 91 % of control, the T/C [8] was 90 % of control and the T/C [12] was 96 % of control. For the same compound, the T/C [9] was 88 % of control, the T/C [13] was 98 % of control and the T/C [10] was 92 % of control.
`CC(=O)c1cccc(NC(=O)Oc2ccc(Cl)cc2Cl)c1` was tested, and the T/C [11] was 101 % of control and the T/C [12] was 110 % of control.
`CN(C)CCCN1CCC2(CCC(CO)CC2)CC1` was tested, and the T/C [5] was 94 % of control, the T/C [6] was 94 % of control and the T/C [7] was 102 % of control.
`CCCCCCC(=O)/C=C/c1ccc(N(C)C)cc1` was tested, and the T/C (dose: 100.0 mg/kg/injection, schedule: Q01DX001 (sc), vehicle: steriod suspending solution) was 97 % of control, the T/C (dose: 100.0 mg/kg/injection, schedule: Q04DX003 (sc), vehicle: steriod suspending solution) was 105 % of control and the T/C (dose: 200.0 mg/kg/injection, schedule: Q01DX001 (sc), vehicle: steriod suspending solution) was 105 % of control. For the same compound, the T/C (dose: 200.0 mg/kg/injection, schedule: Q04DX003 (sc), vehicle: steriod suspending solution) was 103 % of control, the T/C (dose: 400.0 mg/kg/injection, schedule: Q01DX001 (sc), vehicle: steriod suspending solution) was 97 % of control and the T/C (dose: 400.0 mg/kg/injection, schedule: Q04DX003 (sc), vehicle: steriod suspending solution) was 102 % of control.
In the case of `O=c1cc(-c2ccccc2)oc2cc(O)cc(O)c12`, the T/C [4] is reported as 100 % of control, the T/C [5] is reported as 100 % of control and the T/C [6] is reported as 100 % of control. The T/C [7] was 100 % of control.
For `O=C1CN(/N=C/c2ccc(-c3ccc(Cl)c(Cl)c3)o2)C(=O)N1`, the T/C (dose: 50.0 mg/kg/injection, schedule: Q04DX002 (ip), vehicle: Klucel (hydroxypropylcellulose) (HPC)) was 100 % of control, the T/C (dose: 100.0 mg/kg/injection, schedule: Q04DX002 (ip), vehicle: Klucel (hydroxypropylcellulose) (HPC)) was 110 % of control and the T/C (dose: 200.0 mg/kg/injection, schedule: Q04DX002 (ip), vehicle: Klucel (hydroxypropylcellulose) (HPC)) was 95 % of control.
In the case of `O=C1C(N2CCCCC2)=C(N2CC2)C(=O)C(N2CCCCC2)=C1N1CC1`, the T/C (dose: 0.39 mg/kg/injection, schedule: Q04DX003 (ip), vehicle: saline) is reported as 94 % of control and 96 % of control, the T/C (dose: 0.78 mg/kg/injection, schedule: Q04DX003 (ip), vehicle: saline) is reported as 100 % of control and 103 % of control and the T/C (dose: 1.56 mg/kg/injection, schedule: Q04DX003 (ip), vehicle: saline) is reported as 103 % of control and 107 % of control. For the same compound, the T/C (dose: 3.12 mg/kg/injection, schedule: Q04DX003 (ip), vehicle: saline) was 103 % of control and 107 % of control, the T/C (dose: 6.25 mg/kg/injection, schedule: Q04DX003 (ip), vehicle: saline) was 96 % of control and 100 % of control and the T/C (dose: 10.0 mg/kg/injection, schedule: Q01DX001 (ip), vehicle: saline) was 86 % of control. For the same compound, the T/C (dose: 12.5 mg/kg/injection, schedule: Q04DX003 (ip), vehicle: saline) was 103 % of control and 122 % of control, the T/C (dose: 20.0 mg/kg/injection, schedule: Q01DX001 (ip), vehicle: saline) was 99 % of control and the T/C (dose: 35.0 mg/kg/injection, schedule: Q04DX003 (ip), vehicle: saline) was 101 % of control. For the same compound, the T/C (dose: 40.0 mg/kg/injection, schedule: Q01DX001 (ip), vehicle: saline) was 93 % of control, the T/C (dose: 55.0 mg/kg/injection, schedule: Q04DX003 (ip), vehicle: saline) was 90 % of control and the T/C (dose: 80.0 mg/kg/injection, schedule: Q01DX001 (ip), vehicle: saline) was 108 % of control. The T/C (dose: 80.0 mg/kg/injection, schedule: Q04DX003 (ip), vehicle: saline) was 88 % of control.
For `COc1ccc(CNS(=O)(=O)c2ccc(C)cc2)cc1OC`, the T/C (dose: 100.0 mg/kg/injection, schedule: Q01DX001 (ip), vehicle: carboxymethylcellulose (CMC)) was 96 % of control, the T/C (dose: 200.0 mg/kg/injection, schedule: Q01DX001 (ip), vehicle: carboxymethylcellulose (CMC)) was 110 % of control and the T/C (dose: 400.0 mg/kg/injection, schedule: Q01DX001 (ip), vehicle: carboxymethylcellulose (CMC)) was 116 % of control.
For `O=C1CNC(=O)N1`, the T/C (dose: 50.0 mg/kg/injection, schedule: Q01DX009 (ip), vehicle: saline) was 105 % of control, the T/C (dose: 100.0 mg/kg/injection, schedule: Q01DX009 (ip), vehicle: saline) was 107 % of control and the T/C [1] was 94 % of control. For the same compound, the T/C (dose: 200.0 mg/kg/injection, schedule: Q01DX009 (ip), vehicle: saline) was 96 % of control, the T/C [2] was 100 % of control and the T/C (dose: 400.0 mg/kg/injection, schedule: Q01DX009 (ip), vehicle: saline) was 96 % of control. The T/C [3] was 98 % of control.
`c1ccc2c(Nc3ccc(C4=NCCN4)cc3)nnc(Nc3ccc(C4=NCCN4)cc3)c2c1` was tested, and the T/C (dose: 38.0 mg/kg/injection, schedule: Q01DX Z (ip), vehicle: carboxymethylcellulose (CMC)) was 110 % of control, the T/C (dose: 62.5 mg/kg/injection, schedule: Q01DX Z (oral), vehicle: saline) was 103 % of control and the T/C (dose: 63.0 mg/kg/injection, schedule: Q01DX Z (oral), vehicle: water) was 95 % of control. The T/C (dose: 84.0 mg/kg/injection, schedule: Q01DX Z (ip), vehicle: carboxymethylcellulose (CMC)) was 170 % of control, the T/C (dose: 125.0 mg/kg/injection, schedule: Q01DX Z (oral), vehicle: saline) was 103 % of control and the T/C (dose: 125.0 mg/kg/injection, schedule: Q01DX Z (oral), vehicle: water) was 87 % of control. The T/C (dose: 187.5 mg/kg/injection, schedule: Q01DX Z (ip), vehicle: carboxymethylcellulose (CMC)) was 119 % of control, the T/C (dose: 250.0 mg/kg/injection, schedule: Q01DX Z (oral), vehicle: saline) was 105 % of control and the T/C (dose: 500.0 mg/kg/injection, schedule: Q01DX Z (oral), vehicle: water) was 87 % of control.

— PubChem BioAssay AID248 (DTP/NCI, 2004)
